The values that follow are results of earlier work, collected in US9763453B2, “Antimicrobial coating for inhibition of bacterial adhesion and biofilm formation” (Bacterin International, Inc., priority 2004, dated 2017).

The conditions of this data set: aqueous solutions.

On to `[Ag][I]` [silver iodide], for which the Ksp is listed as ~10^−18.
